Some test systems named below: NCI/ADR-RES; HCC 2998; NCI-H460; SN12C; MDA-MB-231; BT-549; SK-MEL-2; Malme-3M; Hs-578T; SK-MEL-28; OVCAR-8; PC-3; NCI-H23; ACHN; HOP-92; CCRF-CEM; U-251; LOX IMVI; HCT-116; SNB-19.
Assay in all cases: NCI tumour cell line growth inhibition, 48 h

Each structure is given as a SMILES string.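 Compound exposure: 48 hours, 5 concentrations, 96-well plates. GI50 marks 50% less growth.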 Active and inactive are the calls of the source. Rule as the data show it: active = GI50 up to about 1.1 µM and inactive = higher.

Turning to `Nc1cc(S(N)(=O)=O)ccc1SSc1ccc(S(N)(=O)=O)cc1N`, the GI50 in the experiment with NCI/ADR-RES, in the experiment on HCC 2998, in the experiment on NCI-H460, in the experiment on SN12C, with MDA-MB-231 and in the experiment with BT-549 was > 100 µM (inactive) throughout. Also, the GI50 in the experiment on SK-MEL-2, with Malme-3M, in the experiment on Hs-578T, in the experiment with SK-MEL-28, in the experiment with OVCAR-8 and in the experiment with PC-3 was > 100 µM (inactive) throughout. In addition, the GI50 in the experiment with NCI-H23 was > 100 µM (inactive); in the experiment on ACHN, > 62.5 µM (inactive); with HOP-92, > 100 µM (inactive); in the experiment on CCRF-CEM, 8.49 µM (inactive); with U-251 it was > 100 µM (inactive); in the experiment with LOX IMVI, > 100 µM (inactive). Also, the GI50 in the experiment with HCT-116 and in the experiment with SNB-19 was > 100 µM (inactive) each time.

Consider `Nc1ccc(-c2nc3ccccc3s2)cc1Br`, for which the GI50 was > 100 µM (inactive) with NCI/ADR-RES; 72.6 µM (inactive) in the experiment with HCC 2998; 4.31 µM (inactive) with NCI-H460; > 100 µM (inactive) in the experiment on SN12C; 52.6 µM (inactive) with MDA-MB-231; > 56.8 µM (inactive) in the experiment with BT-549. In addition, the GI50 in the experiment with SK-MEL-2 was > 100 µM (inactive); in the experiment on Malme-3M, > 100 µM (inactive); with Hs-578T, 24 µM (inactive); in the experiment on SK-MEL-28, > 100 µM (inactive); with OVCAR-8, > 75.2 µM (inactive); with PC-3, 69.7 µM (inactive). The GI50 with NCI-H23 was 63.7 µM (inactive); in the experiment on ACHN, > 80.9 µM (inactive); with HOP-92 it was 26.5 µM (inactive); in the experiment with CCRF-CEM it was 32 µM (inactive); in the experiment with U-251, 57.5 µM (inactive); with LOX IMVI, > 80.9 µM (inactive). Also, in the experiment with SNB-19, the GI50 was 60.4 µM (inactive).

`COc1cccc(C2CC(C)(O)Oc3cc4c(cc32)OCO4)c1O` (configuration not stated): the GI50 is 19.7 µM (inactive) in the experiment with NCI/ADR-RES; 25.6 µM (inactive) in the experiment on HCC 2998; 32.6 µM (inactive) in the experiment with NCI-H460; 28.7 µM (inactive) in the experiment with SN12C; 18 µM (inactive) in the experiment with MDA-MB-231; 15.3 µM (inactive) in the experiment on BT-549. Also, the GI50 with SK-MEL-2 was 22.8 µM (inactive); with Malme-3M it was 29.2 µM (inactive); in the experiment with Hs-578T, 15.4 µM (inactive); with SK-MEL-28, 35.2 µM (inactive); in the experiment with OVCAR-8, 25.7 µM (inactive); in the experiment with PC-3, 27.2 µM (inactive). Further, the GI50 in the experiment with NCI-H23 was 30.4 µM (inactive); in the experiment with ACHN, 31.8 µM (inactive); in the experiment on HOP-92, 22.4 µM (inactive); in the experiment on CCRF-CEM it was 13.3 µM (inactive); with U-251, 24.2 µM (inactive); in the experiment with LOX IMVI it was 25.3 µM (inactive). For the same molecule, the figures for the GI50 in the experiment with HCT-116 and in the experiment with SNB-19 were 10.7 µM (inactive) and 31 µM (inactive), respectively.

Regarding `COc1nc(SC)nc2c1C(O)n1c(nc3ccccc31)S2` (configuration not stated), the GI50 is 10.5 µM (inactive) in the experiment with NCI/ADR-RES; 6.79 µM (inactive) in the experiment on HCC 2998; 15 µM (inactive) in the experiment with NCI-H460; 24.3 µM (inactive) in the experiment with SN12C; 14.4 µM (inactive) in the experiment on MDA-MB-231; 28.1 µM (inactive) in the experiment on BT-549. The GI50 with SK-MEL-2 is 28.9 µM (inactive); with Malme-3M, 40 µM (inactive); with Hs-578T, 16 µM (inactive); in the experiment on SK-MEL-28 it was 9.16 µM (inactive); in the experiment with OVCAR-8 it was 14.1 µM (inactive); in the experiment with PC-3, 19.3 µM (inactive). In addition, the GI50 with NCI-H23 is 19.5 µM (inactive); in the experiment on ACHN, 18.4 µM (inactive); with HOP-92 it was 23.3 µM (inactive); with CCRF-CEM it was 2.32 µM (inactive); in the experiment on U-251, 10.6 µM (inactive); in the experiment with LOX IMVI, 34.6 µM (inactive). The figures for the GI50 in the experiment with HCT-116 and in the experiment with SNB-19 were 11.5 µM (inactive) and 25.2 µM (inactive), respectively.

For the molecule `C=C1C(C2(C)C(OC(C)=O)CC(=O)OC(C)(COC(C)=O)C2CC(=O)OC)C(OC=O)C(OC(=O)C(O)C(C)CC)C2(C)C(c3ccoc3)CC(=O)C12O` (configuration not stated), the GI50 is 45.9 µM (inactive) with NCI/ADR-RES; 0.16 µM (active) in the experiment on HCC 2998; 2.65 µM (inactive) with NCI-H460; 10.8 µM (inactive) in the experiment with SN12C; 4.69 µM (inactive) in the experiment on MDA-MB-231; 4.33 µM (inactive) with BT-549. Also, the GI50 is > 31.4 µM (inactive) in the experiment with SK-MEL-2; 8.05 µM (inactive) in the experiment on Hs-578T; 10.8 µM (inactive) in the experiment with SK-MEL-28; 10.2 µM (inactive) in the experiment on OVCAR-8; 5.52 µM (inactive) with PC-3; > 73.5 µM (inactive) in the experiment on NCI-H23. For the same molecule, the GI50 in the experiment with ACHN was 4.2 µM (inactive); in the experiment on HOP-92, 7.35 µM (inactive); with CCRF-CEM, 0.65 µM (active); in the experiment with U-251, 3.86 µM (inactive); in the experiment with LOX IMVI it was 3.82 µM (inactive); in the experiment on HCT-116, 1.58 µM (inactive).

Consider `CC(C)/C(Cl)=N\OC(=O)Nc1ccccc1F`, for which the GI50 with NCI/ADR-RES was 15.2 µM (inactive); with HCC 2998, 14.9 µM (inactive); in the experiment on NCI-H460, 18.7 µM (inactive); in the experiment on SN12C it was 10 µM (inactive); in the experiment on MDA-MB-231, 8.81 µM (inactive); in the experiment on BT-549, 14.3 µM (inactive). For the same molecule, the GI50 in the experiment on SK-MEL-2 is 18.1 µM (inactive); in the experiment with Malme-3M, 3.94 µM (inactive); in the experiment on Hs-578T, 25.9 µM (inactive); in the experiment with SK-MEL-28, 16.6 µM (inactive); in the experiment with OVCAR-8, 17.2 µM (inactive); in the experiment with PC-3, 17.2 µM (inactive). Besides, the GI50 with NCI-H23 is 17.7 µM (inactive); in the experiment with ACHN, 12.4 µM (inactive); with HOP-92, 2.16 µM (inactive); in the experiment with CCRF-CEM, 0.741 µM (active); in the experiment on U-251, 17.3 µM (inactive); with LOX IMVI it was 2.55 µM (inactive). Moreover, the GI50 is 8.45 µM (inactive) in the experiment with HCT-116 and > 42.9 µM (inactive) in the experiment with SNB-19.

Regarding `CCc1c(Cl)nc(Cl)nc1Cl`, the GI50 in the experiment on NCI/ADR-RES was 0.382 µM (active); in the experiment on HCC 2998 it was 0.214 µM (active); with NCI-H460, 1.93 µM (inactive); in the experiment on SN12C, 0.333 µM (active); in the experiment with MDA-MB-231, 0.346 µM (active); in the experiment with BT-549, 0.0199 µM (active). In addition, the GI50 in the experiment on Malme-3M was 0.0509 µM (active); with Hs-578T, 1.13 µM (inactive); with SK-MEL-28, 1.63 µM (inactive); in the experiment with OVCAR-8 it was 0.299 µM (active); in the experiment on PC-3 it was 0.698 µM (active); with NCI-H23, 0.321 µM (active). The GI50 is 0.076 µM (active) in the experiment with ACHN; 0.565 µM (active) in the experiment with HOP-92; < 0.0121 µM (active) with CCRF-CEM; 0.331 µM (active) in the experiment with U-251; 0.0199 µM (active) in the experiment with LOX IMVI; 0.0885 µM (active) with HCT-116. Also, the GI50 with SNB-19 is 1.45 µM (inactive).

As for `NC(=O)CSc1c2cc(O)ccc2nc2ccc(O)cc12`, the GI50 in the experiment with NCI/ADR-RES, in the experiment on HCC 2998, with NCI-H460, with SN12C, in the experiment on MDA-MB-231 and in the experiment with BT-549 was > 10 µM (inactive) throughout. The GI50 in the experiment on SK-MEL-2, in the experiment with Malme-3M, in the experiment on Hs-578T, with SK-MEL-28, in the experiment on OVCAR-8 and with PC-3 was > 10 µM (inactive) each time. Also, the GI50 in the experiment with NCI-H23, with ACHN, in the experiment on HOP-92, in the experiment on CCRF-CEM, in the experiment on U-251 and in the experiment on LOX IMVI was > 10 µM (inactive) in each case. In addition, the GI50 in the experiment with HCT-116 and in the experiment on SNB-19 was > 10 µM (inactive) throughout.

As for `O[C@H]1[C@H](O)[C@H](O)CN2CCC[C@@H](O)[C@H]12`, the GI50 with NCI/ADR-RES, in the experiment with HCC 2998, in the experiment on SN12C, with MDA-MB-231, in the experiment on BT-549 and in the experiment on SK-MEL-2 was > 100 µM (inactive) each time. Moreover, the GI50 in the experiment with Hs-578T, in the experiment with SK-MEL-28, in the experiment with OVCAR-8, in the experiment on PC-3, in the experiment on NCI-H23 and in the experiment with ACHN was > 100 µM (inactive) each time. The GI50 with HOP-92, in the experiment with CCRF-CEM, with U-251, in the experiment with LOX IMVI, in the experiment on HCT-116 and with SNB-19 was > 100 µM (inactive) throughout.

For `C=C(C)[C@H]1C2=CC(C)=C(O2)[C@@H](O)[C@H](C(=C)C)CCC2=C[C@H]1OC2=O` [KALLOLIDE A], the GI50 in the experiment with NCI/ADR-RES, in the experiment with HCC 2998, in the experiment on NCI-H460, with SN12C, in the experiment on MDA-MB-231 and in the experiment on BT-549 was > 100 µM (inactive) throughout. For the same molecule, the GI50 in the experiment with SK-MEL-2, with Malme-3M, with Hs-578T, in the experiment with SK-MEL-28, in the experiment with OVCAR-8 and with PC-3 was > 100 µM (inactive) throughout. Moreover, the GI50 in the experiment with ACHN, in the experiment on HOP-92, with CCRF-CEM, in the experiment with U-251, in the experiment with LOX IMVI and in the experiment with SNB-19 was > 100 µM (inactive) throughout.

(Values after ChEMBL document CHEMBL1201862, “PubChem BioAssay data set” (2004).)
